Experimental data from patent US5670520A, “Method for inhibiting virus replication in mammalian cells using carbostyil derivatives” (Otsuka Pharmaceutical Co., Ltd., priority 1996, dated 1997).
Converted amounts (≈) assume the structure as drawn.

Legend:
[1] = system: CHO cells; experiment: Rescue of CHO cells from cytostatic effects of 5-FUd; assay type: cell-based, Chinese hamster; conditions: 50 nM 5-FUd, 120 hrs; 0-250 μM vesnarinone or 1.0-10 μM dipyridamole
Description: Nucleoside transport inhibitors, such as dipyridamole or NBMPR, are known to rescue cell proliferation from the cytotoxic effects of 5-fluorouridine(5-FUd) or high dose thymidine, by inhibiting transport of this cytotoxic nucleoside analog or thymidine (Aronow et al, Mol. Cell Biol., 6:2957-2962 (1986)).

[2] = system: CMV strain AD169; experiment: CMV plaque reduction assay in MRC5 cells; assay type: cell-based; conditions: Human betaherpesvirus 5, AD169, MRC5, 168 h
Experimental: More specifically, subconfluent monolayers of MRC5 cells (Biowhittaker, Walkersville, Md.) in 12-well tissue culture plates were exposed to a suspension of a 1:500 dilution of stock virus (CMV strain AD169; ATCC No. VR-538) in Eagles Minimal Essential Medium (MEM) supplemented with 2.0% (v/v) fetal bovine serum, for 2 hr at 37° C. to allow for virus absorption. The fluid containing unabsorbed virus was then removed, and the cell layer rinsed with Eagles MEM without serum.
The minimum compound concentration that reduces plaque production by 50% (MIC50) was calculated from single compound assays by using a regression analysis program for semilog curve fitting.
The following formula of additivity, which is appropriate for inhibitors affecting different sites, was used.

[3] = system: PHA-activated human T lymphocytes; experiment: Accumulation of phosphorylated [3H]thymidine / [3H]AZT in PHA-activated human T lymphocytes; assay type: cell-based; conditions: 0, 75 or 250 μM vesnarinone; 0-120 min
Description: Similar results were obtained when using U937 cells, in place of the PHA-activated human T lymphocytes.

[4] = cited from earlier work
[5] = system: Raji cells; experiment: [3H]adenosine / [3H]adenine transport in Raji cells; conditions: 0-750 μM vesnarinone or 0-100 μM dipyridamole, 1 min pulse
[6] = system: CHO cells; experiment: Rapid uptake of [3H]thymidine / [3H]AZT in CHO cells; conditions: 0-250 μM vesnarinone, 1 min
Experimental: Then, 1.0 μCi/ml of [^3 H]thymidine (6.7 Ci/mmol) or 1.0 μCi/ml of [^3 H]AZT (14 Ci/mmol) was added, and the mixture was immediately layered on silicone oil/paraffin oil (96:6) in microfuge tubes. […] The water and oil phases were discarded, and radioactivity of the cell pellets was measured using liquid scintillation counting.

## COc1ccc(C(=O)N2CCN(c3ccc4c(c3)CCC(=O)N4)CC2)cc1OC [vesnarinone, 3,4-dihydro-6-[4-(3,4-dimethoxybenzoyl)-1-piperazinyl]-2(1H)-quinoline]
[1]
  reversal of cytostatic effects of 5-FUd (cell number): demonstrated a similar ability to rescue the cells in a dose-dependent manner
[2]; read-out: efficacy against CMV plaque formation
  inhibition at 30 µg/mL: 91.5%
[2]; single compound assay, regression analysis, read-out: MIC50 (minimum concentration that reduces plaque production by 50%)
  EC50: 24 µg/mL (≈ 60.7 µM)
[3]
  accumulation of phosphorylated AZT: augmented the accumulation of phosphorylated AZT
  accumulation of phosphorylated [3H]thymidine: delayed the accumulation of phosphorylated [^3 H]thymidine
[4]
  therapeutic range in vivo: 2 to 80 µM
[5]
  [3H]adenosine and [3H]adenine transport: inhibitory effects on nucleoside and nucleobase transport in vitro were observed within the therapeutic range
[6]
  uptake of [3H]AZT: the uptake of [^3 H]AZT was not affected by vesnarinone
  uptake of [3H]thymidine: inhibits the uptake of [^3 H]thymidine in a dose-dependent manner
